# Source: US20040229960A1, “Compositions and methods of administering tubulin binding agents for the treatment of ocular diseases” (priority 2001, published 2004)
# Legend:
# [1] = Biodistribution of 14C-CA4P following sub-Tenon's injection; format: in vivo, New Zealand rabbits
# Description: (§1) ^14C-CA4P (OXiGENE Inc., Watertown, Mass.) was resuspended in 100 ul volume of saline solution and injected with a 30 G needle into the right eyes of anesthesized male New Zealand rabbits (4 months old, 1.8-2.5 kg, n=3 per sample). Three different concentrations of ^14C-CA4P were tested (1, 10, 100 mg/ml) corresponding to doses of 1, 5, and 5 uCi of applied radioactivity respectively. A blank control group was also included. Rabbits were anaesthetized at 1, 6, 24, and 48 hours for blood sampling. After blood collection, the animals were euthanized by Phenobarbital injection and the treated right eyes were removed from all test animals. Ocular tissue samples were dissected from the cornea, aqueous humor, vitreous humor, choroid, or retina, placed in 20-mi glass scintillation vials, vortexed, and incubated for 24 hrs with 500 ul digesting fluid. Plasma was separated from whole blood by centrifugation (1,800 g for 10 minutes). Both ocular tissue samples and plasma were incubated at room temperature with 16 ml of Hionic Fluor™ scintillation fluid for a period of 24 hours prior to radioactivity counting. Each sample was counted for 5 minutes in a Betamatic V counter (Bio-Tek Kontron Instruments, St Quentin en Yvelines, France). The conversion of counts per minute (“cpm”) into disintegrations per minute (“dpm”) was performed automatically by the beta-counter, using calibration curves obtained from ^14C-standards and quenching curves from the respective blank matrices spiked with ^14C-standards. The concentration of drug was determined according to nanogram equivalents of CA4P (ng-Eq/g of tissue) which was calculated from the measured dpm value, the weight of the tissue specimen, and the specific activity of the drug (0.37 mCi/mg), followed by subtraction of the corresponding background value from control eye tissue. A tissue concentration of 1 uM CA4P is equal to […] tissue.
# [2] = Biodistribution of 14C-CA4P following subconjunctival injection; format: in vivo, New Zealand rabbits
# Description: as §1
# Subconjuctival injections were administered at doses of 0.1, 1, 10, and 100 mg/ml. ^14C-CA4P solutions were formulated with 0.24% 10N KOH and 0.01% Benzalkonium chloride and injected in a volume of 100 ul. Animals were treated at an applied dose of 5 uCi with a single subconjunctival injection in right eyes. After delivery, the eye was gently held closed for 2-5 seconds.
# [3] = Transscleral iontophoretic delivery to retina/choroid (LC/MS/MS); format: in vivo, New Zealand white rabbits; details: for Enhancement: 20 min vs passive 0 mA; for Amount CA4P Delivered / Amount CA4 Delivered / Total Combretastatin Delivered: retina/choroid, mean ± SD; for Amount CA4P Delivered / Amount CA4 Delivered: CA4P 10 mg/ml; for Amount CA4 Delivered: extrapolated beyond quantification range
# Description: CA4P is ionizable at physiological pH and therefore is amenable to iontophoretic delivery. The effectiveness of transcleral iontophoretic delivery of CA4P was evaluated using an ocular rabbit ophthalmic applicator (IOMED Inc.,.Salt Lake City, Utah) composed of an 180 ul silicone receptacle shell backed with silver chloride-coated silver foil current distribution component, a connector lead wire, and a single layer of hydrogel-impregnated polyvinyl acetal matrix to which CA4P (10 mg/ml) was administered. The contact surface area of the applicator was 0.54 cm^2. […] Direct current anodal iontophoresis was performed with each applicator at 2,3,and 4 mA for 20 min using an Phoresor II™ PM 700 (IOMED Inc., Salt Lake City, Utah) power supply. Passive iontophoresis (0 mA for 20 min) was used as a control. Following treatment, the animals were euthanized, and eyes were enucleated 30 minutes post-treatment, rinsed with tap water, and frozen at −70 C. Retina and choirodal tissue was dissected from these sample.
# CA4P, CA, and the internal standard Diethylstilbestrol (Sigma Chemical Company) were quantified from approximately 100 mg of tissue using chromatography tandem mass spectrometry (“LC/MS/MS”) method. An aliquot of methonal extraction was injected onto a SCIEX APIO 3000 LC/MS/MS apparatus equipped with an HPLC colum. Peak area of the m/z 315→285 product ion of CA43 and m/z 395→79 product ion of CA4P were measured against the peak area of the m/z 267→237 product ion of the internal standard. Quantitation was performed using weighted (1/x) linear least squares regression analyses generated from fortified calibration standards prepared immediately prior to each run. […] These levels represent a several thousand-fold excess over what is considered to be a therapeutically relevant concentration for inhibiting tubulin binding (2-3 uM).
smiles,measurement,setting,value
"COc1ccc(/C=C\c2cc(OC)c(OC)c(OC)c2)cc1OP(=O)([O-])[O-].[Na+].[Na+] [CA4P, combretastatin A4 disodium phosphate]",Cmax,"[1]; aqueous humor, 1 mg/ml sub-Tenon's",300 nM
same,Cmax,"[1]; aqueous humor, 10 mg/ml sub-Tenon's",1800 nM
same,Cmax,"[1]; aqueous humor, 100 mg/ml sub-Tenon's",5920 nM
same,Cmax,"[1]; choroid, 1 mg/ml sub-Tenon's",1200 nM
same,Cmax,"[1]; choroid, 10 mg/ml sub-Tenon's",6200 nM
same,Cmax,"[1]; choroid, 100 mg/ml sub-Tenon's",861000 nM
same,Cmax,"[1]; plasma, 1 mg/ml sub-Tenon's",70 nM
same,Cmax,"[1]; plasma, 10 mg/ml sub-Tenon's",490 nM
same,Cmax,"[1]; plasma, 100 mg/ml sub-Tenon's",9300 nM
same,Concentration of drug delivered,"[1]; retina and choroid, 100 and 10 mg/ml, sub-Tenon's",> 1000 nM
same,Cmax,"[1]; retina, 1 mg/ml sub-Tenon's",850 nM
same,Cmax,"[1]; retina, 10 mg/ml sub-Tenon's",7100 nM
same,Cmax,"[1]; retina, 100 mg/ml sub-Tenon's",171000 nM
same,Time of highest concentrations of drug in the eye,[1]; sub-Tenon's injection,within the first hour
same,Cmax,"[1]; vitreous, 1 mg/ml sub-Tenon's",19 nM
same,Cmax,"[1]; vitreous, 10 mg/ml sub-Tenon's",130 nM
same,Cmax,"[1]; vitreous, 100 mg/ml sub-Tenon's",3900 nM
same,Cmax,"[2]; choroid, 0.1 mg/ml subconjunctival",2300 nM
same,Cmax,"[2]; choroid, 1 mg/ml subconjunctival",1900 nM
same,Cmax,"[2]; choroid, 10 mg/ml subconjunctival",188000 nM
same,Cmax,"[2]; choroid, 100 mg/ml subconjunctival",908000 nM
same,Concentration of drug delivered,"[2]; cornea, retina and choroid, 100, 10 and 1 mg/ml, subconjunctival",> 1000 nM
same,Cmax,"[2]; cornea, 0.1 mg/ml subconjunctival",1500 nM
same,Cmax,"[2]; cornea, 1 mg/ml subconjunctival",13000 nM
same,Cmax,"[2]; cornea, 10 mg/ml subconjunctival",143000 nM
same,Cmax,"[2]; cornea, 100 mg/ml subconjunctival",761000 nM
same,Cmax,"[2]; plasma, 0.1 mg/ml subconjunctival",17 nM
same,Cmax,"[2]; plasma, 1 mg/ml subconjunctival",25 nM
same,Cmax,"[2]; plasma, 10 mg/ml subconjunctival",900 nM
same,Cmax,"[2]; plasma, 100 mg/ml subconjunctival",8000 nM
same,Cmax,"[2]; retina, 0.1 mg/ml subconjunctival",130 nM
same,Cmax,"[2]; retina, 1 mg/ml subconjunctival",1700 nM
same,Cmax,"[2]; retina, 10 mg/ml subconjunctival",39600 nM
same,Cmax,"[2]; retina, 100 mg/ml subconjunctival",174000 nM
same,Time of highest concentrations of drug in the eye,[2]; subconjunctival injection,within the first hour
same,Cmax,"[2]; vitreous, 0.1 mg/ml subconjunctival",5 nM
same,Cmax,"[2]; vitreous, 1 mg/ml subconjunctival",20 nM
same,Cmax,"[2]; vitreous, 10 mg/ml subconjunctival",2100 nM
same,Cmax,"[2]; vitreous, 100 mg/ml subconjunctival",15700 nM
same,Enhancement,[3]; 2 mA,17
same,Enhancement,[3]; 3 mA,16
same,Enhancement,[3]; 4 mA,15
same,Enhancement of delivery of total combretastatin to choroid and retina by iontophoresis,[3]; iontophoresis vs passive delivery,approximately 15 fold
same,Amount CA4P Delivered,"[3]; 0 mA, 20 min (passive)",<0.4 ng
same,Amount CA4 Delivered,"[3]; 0 mA, 20 min (passive)",57 ± 37 ng
same,Total Combretastatin Delivered,"[3]; 0 mA, 20 min (passive)",1.6 ± 1.0 nmol/g
same,Amount CA4P Delivered,"[3]; 2 mA, 20 min",1.4 ± 0.5 ng
same,Amount CA4 Delivered,"[3]; 2 mA, 20 min",910 ± 630 ng
same,Total Combretastatin Delivered,"[3]; 2 mA, 20 min",27 ± 15 nmol/g
same,Amount CA4P Delivered,"[3]; 3 mA, 20 min",3.8 ± 1.5 ng
same,Amount CA4 Delivered,"[3]; 3 mA, 20 min",710 ± 450 ng
same,Total Combretastatin Delivered,"[3]; 3 mA, 20 min",25 ± 17 nmol/g
same,Amount CA4P Delivered,"[3]; 4 mA, 20 min",7.2 ± 6.3 ng
same,Amount CA4 Delivered,"[3]; 4 mA, 20 min",670 ± 440 ng
same,Total Combretastatin Delivered,"[3]; 4 mA, 20 min",24 ± 10 nmol/g
